For assay [1], the system named is apoptotic machinery of 293 cell extracts. The assay can be described thus: In vitro apoptosis of isolated HeLa nuclei in 293 cell extracts. Also on record: species or system human. On the procedure: Extracts were prepared essentially as described (Lazebnik, Y. A., et al., J. Cell. Biol., 123:7-22 (1993)). 293 cells (5-7×10^5 cells/ml)were washed and gently resuspended in 10× pellet volumes of extract preparation buffer (50 mM PIPES pH 7.0, 50 mM KCl, 5 mM EGTA, 2mM MgCl2, 1 mM DTT) plus 0.1 mM PMSF, 10 μg/ml cytochalasin B and 2 μg/ml each of chymostatin, pepstatin, leupeptin and antipain. Cells were immediately centrifuged (200 g, 5 minutes) and lysed by three cycles of freeze/thawing with liquid nitrogen. The lysate was centrifuged at 100,000 g for two hours, giving a cell extract. […]
Intact cells or isolated nuclei were fixed with 4% paraformaldehyde, stained with DAPI (1μg/ml) and examined by fluorescence microscopy. The percentage of cells showing apoptotic nuclear morphology was determined. […]
293 cell extracts (10 μl) were incubated with isolated HeLa nuclei (1×10^5) for 60 minutes at 37° C. either alone or with biotin-YVAD-AMK (100 μM), an inhibitor of ILPs. After incubation aliquots of the reaction were fixed, stained with DAPI and examined by fluorescence microscopy.
Extracts from E1A/E1B transformed MEFs or 293 cells (10 μl) were incubated with bcl-2 (40 μg/ml) for 10 minutes at 37° C. prior to further incubation with HeLa nuclei (1×10^5) for 60 minutes. Nuclei were fixed, stained with DAPI and examined by fluorescence microscopy. […]

The test system of the next assay is Jurkat cells. The assay can be described thus: Apoptotic nuclear morphology (DAPI) in intact Jurkat cells. The settings on record: etoposide 50 μM. The assay is classed as cell-based. The protocol:
(§1) Intact cells or isolated nuclei were fixed with 4% paraformaldehyde, stained with DAPI (1μg/ml) and examined by fluorescence microscopy. The percentage of cells showing apoptotic nuclear morphology was determined. Images were acquired using a Photometrics PXL CCD camera (Photometrics Ltd) controlled by Oncor Image software (Oncor Inc.). Figures were prepared using Adobe Photoshop software. Jurkat cells (1×10^5/ml) (FIG. 1A) or 293 cells (1×10^5/ml) (FIG. 1B) were incubated with or without etoposide (50 μM). Cells were fixed at the indicated times and stained with DAPI. The percentage of cells with apoptotic nuclear morphology was determined. Samples were also taken to assess ILP activation.

Another assay deals with 293 cells. Briefly: Apoptotic nuclear morphology (DAPI) in intact 293 cells. The assay is classed as cell-based, human. The following applies: etoposide 50 μM. On the procedure:
as §1

Assay [2] relates to ICE-like proteases (ILPs) in 293 cells. Briefly: Affinity labeling of active ILPs in 293 cells. The assay is classed as cell-based, human. The settings on record: 293 cells treated with etoposide. On the procedure: (§2) Cells (2×10^6) were centrifuged (200 g, 5 minutes) and resuspended in […] MDB containing 10 μM biotinylated YVAD.AMK (plus protease inhibitors and […] cytochalasin B) and lysed by freeze/thawing for three cycles. The lysate was centrifuged (16,000 g, 20 minutes, 4° C.) and the supernatant incubated at 37° C. for 4 minutes to label active ILPs. The protein concentration was determined (Bradford assay), an equal volume of 2×SDS sample buffer added and the sample boiled for 5 minutes.
(§3) Extracts were mixed with an equal volume of MDB containing 20 μM biotinylated YVAD.AMK and incubated at 37° C. for 4 minutes to label active ILPs. Labeling was stopped by adding an equal volume of 2×SDS sample buffer and samples were subjected to 15% SDS-PAGE. Proteins were transferred to a PVDF Immobilon P^SQ membrane (Millipore Corp.) and the membrane washed (methanol, 5 minutes) and dried (80° C., 15 minutes). The blot was incubated with avidin (1 μg/ml) followed by Biotin-horse radish peroxidase (0.05 μg/ml), and labeled proteins detected by ECL (Amersham Inc.).
(§4) To avoid relying solely on the morphological manifestations of apoptosis, whether activation of ILPs, a biochemical hallmark of apoptosis, occurred in 293 cells treated with etoposide was also determined. Jurkat cells (2×10^6) or 293 cells (2×10^6) were incubated with biotin-YVAD-AMK, an affinity probe that labels active ILPs.

Assay [3] deals with ICE-like proteases (ILPs) in Jurkat cells. Briefly: Affinity labeling of active ILPs in Jurkat cells. The assay is classed as cell-based. The settings on record: Jurkat cells treated with etoposide. The protocol:
as §2, §3, §4

Assay [4] concerns Interleukin-1β-converting enzyme-like proteases (ILPs). Briefly: Fluorescent substrate (DEVD-AFC) assay for ILP activity in 293 cell extracts. The assay is classed as biochemical, human. The following applies: for rate of ILP activation (dose response, free AFC generated per minute per milligram of extract): dialyzed S-100 extracts of 293 cells, various concentrations; for rate of ILP activation (dose response, free AFC generated per minute per milligram of extract) / free AFC (cleaved DEVD-AFC) generated in one minute by one milligram of extract: 60 minutes at 37° C.; for free AFC (cleaved DEVD-AFC) generated in one minute by one milligram of extract: 293 cell extracts, vanadate 5 mM, Granzyme B 2 U/ul added before shift. The protocol: Interleukin-1β-converting enzyme-like proteases activity was measured by monitoring the cleavage of DEVD-AFC. This fluorogenic substrate DEVD-AFC consists of the peptide sequence (DEVD) which resembles the cleavage site in proteins that are degraded by ILPs, conjugated to amino-trifluoromethyl coumarin (AFC). When the peptide and the AFC molecule are attached the substrate is not fluorescent, when it is free it is fluorescent. […] The activated ILPs cleave the bond between the peptide and the AFC, resulting in increased fluorescence, which is detected using a fluorimeter. The assay is performed in a microtiter plate using the format essentially as described by Thomberry, N. A., Methods in Enzymology, 244:615-631 (1994). […] This period of time ranges from 0 to 90 minutes. During the preincubation period of a modulation assay, compounds that are to be assessed for their ability to activate or inhibit apoptosis are also introduced into the sample. Depending upon the purpose of the experiment the test compound may be present for the entire period of the preincubation or only a portion of the time. In order to measure the level of ILP activation 1 μl of extract is added to 200 μl of assay buffer (50 mM PIPES/KOH pH 7.0, 0.1 mM EDTA, 1 mM DTT, 10% glycerol) containing 20 μM DEVD-AFC (Enzyme Systems products). The release of free AFC was measured with a fluorescence plate reader, Cytofluor (Perspective Biosystems). The amount of fluorescence resulting from samples assayed in the presence and absence of potential modulatory compounds is compared to appropriate control samples and expressed as the number of free AFC molecules generated in one minutes by one milligram of cell extract.
Identifying agents that modulate the apoptotic machinery of 293 cellular extracts Dialyzed S-100 extracts of 293 cells were incubated for 60 minutes at 37° C. with various concentrations of either ATP, EDTA or sodium ortho-vanadate. ILP activity was then measured using the fluorogenic substrate assay. (FIGS. 8A-C).
To determine whether bcl-2 blocks ILP activation or inhibits the enzymatic activity of ILPs, bcl-2 was added to extracts either before or after incubation at 37° C. and monitored ILP activity by a quantitative enzymatic assay. Bc1-2 (40 μg/ml) was added to 293 extract either before incubation at 37° C. or after 15 minutes of the incubation (additions indicated by arrows). ILP activity against DEVD-AFC was measured as described above (FIG. 3).
As described below, the system described above can be used to screen for compounds that effect ILP activation. […] Vanadate (0.1, l and 5 mM) was added to extracts from 293 cells and the extracts then shifted to 37° C. and incubated for 30 minutes. The rate of DEVD-AFC proteolysis was then determined.
Vanadate (5 mM) was added to extracts either before 60 minutes incubation at 37° C. or after 60 minutes incubation. The extracts were then incubated for a further 60 minutes and the rate of DEVD-AFC proteolysis determined.
Extracts from 293 cells were incubated for 60 minutes at 37° C. Where indicated vanadate (5 mM), Granzyme B (2 U/ul ) or DEVD-CMK (10 μM) was added before the extract was shifted to 37° C. After 60 minutes the rate of DEVD-AFC proteolysis was determined. Data is representative of two experiments. In parallel, nuclei (1×10^7/ml) were incubated at 37° C. for 60 minutes with extracts treated with vanadate (5 mM), Granzyme B (2 U/ul) or DEVD-CMK (10 μM) where indicated. Nuclei were also incubated at 4° C. with extract or at 37° C. with Granzyme B but no extract.
Extracts were incubated at 37° C. and vanadate was added at the indicated times (arrows) to a final concentration of 5 mM. The rate of DEVD-AFC proteolysis in untreated extract (closed symbols) or vanadate treated extracts (open symbols) was measured at the indicated times. Data is representative of three experiments.

The subject of assay [5] is ICE-like proteases (ILPs), cpp32. The assay can be described thus: Affinity labeling of ILPs and cpp32 immunoblotting in 293 cell extracts. The assay is classed as biochemical, human. The following applies: Granzyme B added to 293 extracts treated with vanadate. On the procedure:
as §3
Affinity blots were re-probed to detect cpp32. These membranes were soaked in methanol for 5 minutes to inactivate horseradish peroxidase, dried and re-probed with a monoclonal antibody to cpp32 (Transduction Laboratories) followed by incubation with a secondary antibody conjugated to horseradish peroxidase. The antigen-antibody complex was detected by ECL (Amersham Inc).
Prevention of apoptosis was achieved only if extracts were pre-incubated with bcl-2 before addition of nuclei. […] The same extracts were incubated alone, with buffer or with bcl-2 (40 μg/ml) for 70 minutes at 37° C. and active ILPs labeled with biotin YVAD.AMK (10 μM). Samples were subjected to 15% SDS-PAGE, transferred to a PVDF membrane and labeled ILPs visualized by ECL.
(Immunoblotting shows a protein as a band on a membrane.)

As to “biotin-YVAD-acyloxymethylketone [biotin YVAD-amk]”, the “nuclear morphological changes of apoptosis in HeLa nuclei” value in assay [1] (293 cell extract, inhibitor 100 μM, 60 minutes at 37° C.) is recorded as “prevented the nuclear morphological changes of apoptosis”.
For `COc1cc([C@@H]2c3cc4c(cc3[C@@H](O[C@@H]3O[C@@H]5CO[C@@H](C)O[C@H]5[C@H](O)[C@H]3O)[C@H]3COC(=O)[C@H]23)OCO4)cc(OC)c1O` [etoposide], the “induction of apoptotic morphology” value with Jurkat cells was “sufficient to kill Jurkat cells”; in the assay with 293 cells it was “no morphological signs of apoptosis”. Also, the results for the “active ILPs detected by biotin-YVAD-AMK affinity labeling” value in assay [2] and in assay [3] were “No active ILPs were detected” and “multiple active ILPs were detected”, respectively.
On to `Nc1ncnc2c1ncn2[C@@H]1O[C@H](COP(=O)(O)OP(=O)(O)OP(=O)(O)O)[C@@H](O)[C@H]1O` [ATP], for which, in assay [4], the “rate of ILP activation (dose response, free AFC generated per minute per milligram of extract)” value is reported as “increases the rate of ILP activation”.
“Granzyme B: a serine protease which activates ILPs directly”: the “effect on vanadate inhibition of in vitro apoptosis (nuclei)” value in assay [1] (Granzyme B 2 U/ul added to 293 extracts treated with vanadate 5 mM, nuclei 60 minutes at 37° C.) was “completely overcame vanadate inhibition”. Further, the “ILP activation and cpp32 processing (affinity labeling, immuno-blotting)” value in assay [5] is “resulted in ILP activation and cpp32 processing”. The “free AFC (cleaved DEVD-AFC) generated in one minute by one milligram of extract” value in assay [4] was determined as 0 pmol/min. Further, the “effect on vanadate inhibition of ILP activity” value in assay [4] (Granzyme B 2 U/ul added to 293 extracts treated with vanadate 5 mM) is “completely overcame vanadate inhibition”.
Turning to `[Na+].[Na+].[Na+].[O]=[V]([O-])([O-])[O-]` [vanadate, sodium ortho vanadate], in assay [4], the “free AFC (cleaved DEVD-AFC) generated in one minute by one milligram of extract” value turned out to be 1.4 pmol/min and the “rate of ILP activation (dose response, free AFC generated per minute per milligram of extract)” value is recorded as “decreases the rate of ILP activation”. Further, in assay [4] (vanadate 5 mM added after 60 minutes incubation at 37° C. (ILPs already active), further 60 minutes), the “ILP activity (rate of DEVD-AFC proteolysis)” value is listed as “had no effect on ILP activity”. Besides, the “process of ILP activation (rate of DEVD-AFC proteolysis)” value in assay [4] (vanadate 5 mM added at different times after shift of 293 extract to 37° C.) is given as “arrested the process of ILP activation irrespective of when it was added”. Also, in assay [4] (vanadate 5 mM added before shift to 37° C., all extracts), the “inhibition of ILP activation” value is on record as “complete inhibition”. Besides, in assay [4] (vanadate 0.1, 1 and 5 mM added before shifting 293 extract to 37° C., 30 minutes), the “rate of DEVD-AFC proteolysis” value is given as “inhibited cleavage of DEVD-AFC”.
For the compound `O=C(O)CN(CCN(CC(=O)O)CC(=O)O)CC(=O)O` [EDTA], the “rate of ILP activation (dose response, free AFC generated per minute per milligram of extract)” value in assay [4] is “decreases the rate of ILP activation”.

The values above are taken from patent US6555330B1, “Oncogene-induced apoptosis in drug-resistant cells” (Cold Spring Harbor Laboratory, priority 1996, dated 2003).
